The results in this text go back to US8344008B2 (Janssen Pharmaceutica NV, priority 2007, dated 2013).

The assay has as its target T1, recombinant human LTA4 hydrolase (rhLTA4H) (Homo sapiens, UniProt P09960).
T1 construct: made in house; host or cells: Spodoptera frugiperda (Sf-9) cells, baculovirus (pFastBac1)
T1 sequence (P09960 1-611): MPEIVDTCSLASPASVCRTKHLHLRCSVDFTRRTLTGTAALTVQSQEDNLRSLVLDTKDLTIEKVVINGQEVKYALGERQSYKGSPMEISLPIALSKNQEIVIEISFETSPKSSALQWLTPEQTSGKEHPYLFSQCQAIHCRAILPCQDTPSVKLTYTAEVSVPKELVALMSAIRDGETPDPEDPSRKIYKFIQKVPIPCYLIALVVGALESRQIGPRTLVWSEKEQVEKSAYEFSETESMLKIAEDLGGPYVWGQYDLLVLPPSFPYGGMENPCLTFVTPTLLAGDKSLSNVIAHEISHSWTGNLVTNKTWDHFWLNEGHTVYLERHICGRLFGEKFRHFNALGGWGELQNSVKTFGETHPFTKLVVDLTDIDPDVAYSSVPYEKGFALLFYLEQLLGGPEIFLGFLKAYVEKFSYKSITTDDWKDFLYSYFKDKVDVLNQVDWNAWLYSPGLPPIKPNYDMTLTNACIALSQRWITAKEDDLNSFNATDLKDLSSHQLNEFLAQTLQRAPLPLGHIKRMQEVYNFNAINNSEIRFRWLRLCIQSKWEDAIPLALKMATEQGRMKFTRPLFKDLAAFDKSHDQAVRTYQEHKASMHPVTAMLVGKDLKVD
Put plainly: Recombinant Human LTA4 Hydrolase Assay for LTA4 Hydrolase Inhibitor Activity. Format: biochemical. Conditions: average of results obtained; LTB4 quantified by enzyme-linked immunoassay. The method in brief: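 LTB4 formation, quantified by EIA after 10 min at rt, was the read-out once 9 ng LTA4 (free acid) was added to recombinant human enzyme (36 ng, Sf-9 expressed) that had sat 10 min with compound. Buffer: 0.1 M potassium phosphate pH 7.4 with fatty-acid-free BSA; IC50 by 4-parameter fit.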
In the case of `NC(=O)N[C@@H]1C[C@H]2CC[C@@H](C1)N2CCOc1ccc(Oc2nc3ccc(Cl)cc3s2)cc1` [Example 234, meso-exo-(8-{2-[4-(6-Chloro-benzothiazol-2-yloxy)-phenoxy]-ethyl}-8-aza-bicyclo[3.2.1]oct-3-yl)-urea], the Ki – broadly, a measure of affinity in units of concentration, obtained from inhibition or displacement – came to 0.072 µM.

As for `O=C(CO)N1CC2CCN(Cc3ccc(Oc4nc5ccccc5s4)cc3)CC2C1` (centres unmarked) [Example 117, 1-{5-[4-(Benzothiazol-2-yloxy)-benzyl]-octahydro-pyrrolo[3,4-c]pyridin-2-yl}-2-hydroxy-ethanone], the Ki was 0.02 µM.

As to `CS(=O)(=O)N1CC2CCC(C1)N2CCOc1ccc(Oc2nc3cccc(F)c3s2)cc1` [Example 211, meso-7-Fluoro-2-{4-[2-(3-methanesulfonyl-3,8-diaza-bicyclo[3.2.1]oct-8-yl)-ethoxy]-phenoxy}-benzothiazole], the Ki is 0.159 µM.

Take `NCC(=O)N1CCC2CN(Cc3ccc(Oc4nc5ccccc5s4)cc3)CC21` (centres unmarked) [Example 95, 2-Amino-1-{5-[4-(benzothiazol-2-yloxy)-benzyl]-hexahydro-pyrrolo[3,4-b]pyrrol-1-yl}-ethanone]: the inhibition constant (Ki) was 0.036 µM.

As for `NC(=O)N1C[C@@H]2CCN(Cc3ccc(Oc4nc5ccccc5s4)cc3)[C@@H]2C1` [Example 137, (S,S)-1-[4-(Benzothiazol-2-yloxy)-benzyl]-hexahydro-pyrrolo[3,4-b]pyrrole-5-carboxylic acid amide], the Ki turned out to be 0.018 µM.

With `CS(=O)(=O)N1[C@@H]2CC[C@H]1C[C@H](NCCc1ccc(Oc3nc4c(Cl)cccc4s3)cc1)C2` [Example 237, meso-exo-{2-[4-(4-Chloro-benzothiazol-2-yloxy)-phenyl]-ethyl}-(8-methanesulfonyl-8-aza-bicyclo[3.2.1]oct-3-yl)-amine], the Ki came to 0.244 µM.

Take `O=C(O)CN1CC2CN(Cc3ccc(Oc4nc5ccccc5s4)cc3)CC2C1` (centres unmarked) [Example 158, {5-[4-(Benzothiazol-2-yloxy)-benzyl]-hexahydro-pyrrolo[3,4-c]pyrrol-2-yl}-acetic acid]: the Ki amounted to 0.048 µM.

For the compound `CC(=O)N1C2CCC1CN(Cc1ccc(Oc3nc4ccccc4s3)cc1)C2` [Example 51, meso-1-{3-[4-(Benzothiazol-2-yloxy)-benzyl]-3,8-diaza-bicyclo[3.2.1]oct-8-yl}-ethanone], the Ki is 0.092 µM.

As for `CC(=O)N[C@H]1C[C@H]2CC[C@@H](C1)N2Cc1ccc(Cc2nc3ccccc3s2)cc1` [Example 5, meso-endo-N-[8-(4-Benzothiazol-2-ylmethyl-benzyl)-8-aza-bicyclo[3.2.1]oct-3-yl]-acetamide], the Ki turned out to be 0.035 µM.

Take `CC(=O)N1CC2CCC(C1)N2CCOc1ccc(Oc2nc3c(Cl)cccc3s2)cc1` [Example 247]: the Ki was found to be 0.167 µM.

`NC(=O)N1C[C@H]2C[C@@H]1CN2CCc1ccc(Oc2nc3ccccc3s2)cc1` [Example 280, (R,R)-5-{2-[4-(Benzothiazol-2-yloxy)-phenyl]-ethyl}-2,5-diaza-bicyclo[2.2.1]heptane-2-carboxylic acid amide]: the Ki was 0.011 µM.

Take `O=C(C1CC1)N1CC2CN(Cc3ccc(Oc4nc5ccccc5s4)cc3)CC2C1` (centres unmarked) [Example 111, {5-[4-(Benzothiazol-2-yloxy)-benzyl]-hexahydro-pyrrolo[3,4-c]pyrrol-2-yl}-cyclopropyl-methanone]: the Ki amounted to 0.01 µM.

For `CS(=O)(=O)N1CC2CCC(C1)N2CCOc1ccc(Oc2nc3ccc(F)cc3s2)cc1` [Example 243, meso-6-Fluoro-2-{4-[2-(3-methanesulfonyl-3,8-diaza-bicyclo[3.2.1]oct-8-yl)-ethoxy]-phenoxy}-benzothiazole], the Ki was 0.061 µM.

In the case of `CC(=O)N1C[C@@H]2C[C@H]1CN2Cc1ccc(Oc2nc3ccc(C)cc3s2)cc1` [Example 270, (S,S)-1-{5-[4-(6-Methyl-benzothiazol-2-yloxy)-benzyl]-2,5-diaza-bicyclo[2.2.1]hept-2-yl}-ethanone], the Ki is 0.072 µM.
